According to publication PMC3132048, “Treatment of experimental adjuvant arthritis with a novel folate receptor-targeted folic acid-aminopterin conjugate” (Arthritis Research & Therapy, 2011):
Marks after values point to notes of the source that are not given here.

How the values were obtained:
[1] = target: T1, human FRβ (CHO-FRβ cells) (Homo sapiens, UniProt P14207); assay: Relative affinity assay: displacement of [3H]FA from CHO-FRβ cells; format: binding; conditions: 37°C, competitor of [3H]FA, inverse molar ratio to displace 50%
T1 construct: host or cells: CHO-K1 cells
T1 sequence (P14207 17-255): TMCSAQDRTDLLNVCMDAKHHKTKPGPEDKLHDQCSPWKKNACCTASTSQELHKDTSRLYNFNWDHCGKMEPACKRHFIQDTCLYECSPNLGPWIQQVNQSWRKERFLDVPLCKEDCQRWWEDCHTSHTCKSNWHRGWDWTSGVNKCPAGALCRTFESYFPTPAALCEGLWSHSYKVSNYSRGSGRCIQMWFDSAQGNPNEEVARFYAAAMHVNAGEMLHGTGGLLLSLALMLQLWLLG
Experimental: (§1) The relative affinities of EC0746, AMT, and MTX were determined according to a previously established method except that both KB cells and CHO-FRβ cells were used as the sources of FR [33]. KB cells are a human cancer cell line known for elevated expression of FRα. CHO-FRβ cells were obtained from Manohar Ratnam, Department of Biochemistry and Cancer Biology, The University of Toledo (Toledo, OH, USA). This cell line was originally generated by stable integration and amplification of a human FRβ cDNA expression construct in CHO-K1 cells.

[2] = target: T2, FRα (FRα-expressing KB cells) (Homo sapiens, UniProt P15328); assay: Relative affinity assay: displacement of [3H]FA from KB cells; format: binding; conditions: 37°C, competitor of [3H]FA, inverse molar ratio to displace 50%
T2 construct: both KB cells and CHO-FRβ cells were used as the sources of FR; endogenous in cells; host or cells: KB cells
T2 sequence (P15328 25-257): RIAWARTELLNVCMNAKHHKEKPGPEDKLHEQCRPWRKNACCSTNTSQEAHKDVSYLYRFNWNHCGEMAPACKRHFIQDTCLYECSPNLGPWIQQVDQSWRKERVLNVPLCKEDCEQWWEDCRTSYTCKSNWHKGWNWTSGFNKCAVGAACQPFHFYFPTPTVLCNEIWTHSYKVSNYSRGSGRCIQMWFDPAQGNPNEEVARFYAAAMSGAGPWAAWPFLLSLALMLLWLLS
Experimental: as §1

[3] = oral exposure, mice; cited from earlier work
[4] = tested on: arthritis; parameters: method as in PMID 16170572; conditions: murine arthritis; cited from earlier work
[5] = Plasma pharmacokinetics after single subcutaneous dose; format: in vivo, rat; conditions: female, Lewis, rat, plasma, sc, after single s.c. dose of unconjugated AMT 500 nmol/kg
Experimental: Female Lewis rats with jugular vein catheters (Harlan Sprague Dawley) were used to assess the plasma pharmacokinetics of EC0746 and unconjugated AMT. The animals were divided into two main groups, one given a single dose of EC0746 s.c. and the second a single dose of AMT s.c., both at 500 nmol/kg. Whole blood samples (300 μl) were collected from three animals per time point at the following time points: 1 minute, 10 minutes, 30 minutes, 1 hour, 2 hours, 3 hours, 4 hours, and 8 hours after injection. The blood samples were placed into anticoagulant tubes containing 1.7 mg/ml K3EDTA and 0.35 mg/ml N-maleoyl-β-alanine (0.35 mg/ml) in a 0.15% acetic acid solution. Plasma samples were obtained by centrifugation for 3 minutes at ~2,000 × g and stored at -80°C. The amounts of EC0746 and AMT in the plasma and the two primary metabolites of EC0746 (AMT and AMT hydrazide) were determined by liquid chromatography/mass spectrometry/mass spectrometry.

[6] = Preliminary short-term toxicity / MTD in folate-deficient healthy rats; format: in vivo, rat; conditions: rat, in vivo, sc; healthy rats on folate-deficient diet, four s.c. doses in 2 weeks; read-out: Maximum tolerated dose (MTD)
Experimental: The short-term toxicity and MTD of EC0746 and AMT were evaluated in healthy rats following the standard BIW subcutaneous dosing regimen used for efficacy studies. Further, these animals were put on a folate-deficient diet for ~20 days before treatment to match the folate deficiency status of AIA rats used for therapy. The folate-deficient but nonarthritic animals were thus given increasing doses of EC0746 and AMT for two consecutive weeks on a BIW basis. […] Standard hematologic and blood chemistry parameters were examined as needed along with histopathology.

[7] = tested on: air-pouch inflammation; parameters: method as in PMID 16170572; conditions: murine air-pouch inflammation; cited from earlier work
[8] = tested on: TNFα production in RAW264.7 cells; assay: LPS-stimulated TNFα production (ELISA); format: cell-based, murine; conditions: RAW264.7 macrophages, data not shown
Experimental: (§2) RAW264.7 cells in 96-well plates (3.5 × 10^4 cells/well) were treated with 10-fold serial dilutions of EC0746 (≤1 μM) in FFRPMI medium without and with 100-fold molar excess of FA. After a 2-hour exposure, the drug-containing media were replaced and the cells were allowed to incubate further for 70 hours (referred in the text as a 70-hour chase). In comparison, the cells were also treated continuously with AMT for 72 hours. Four hours prior to the end of incubation, LPS was added to the treated cells at a final concentration of 100 ng/ml. Then 100 μl culture supernatants were collected for TNFα analysis by ELISA. The cell viability was assessed by adding XTT to the remaining media for an additional 4 hours following the manufacturer's instructions. To evaluation of a cytostatic effect, RAW264.7 cells seeded at 1 × 10^6 cells/well in six-well plates were subjected to 2-hour exposure and a 70-hour chase with 0, 0.1, 10, and 1000 nM EC0746 without and with excess FA. At the end of the incubation (no LPS added), the surviving cells (that is, still viable cells) were recovered and redistributed in equal numbers in fresh medium for an additional 72 hours. The cell proliferation was again assessed by the XTT assay. All results were expressed as the percentage absorbance (minus background) relative to the untreated control cells.

[9] = tested on: RAW264.7 cells; format: cell-based, murine; conditions: RAW264.7 macrophages, data not shown
Experimental: as §2

[10] = tested on: adjuvant-induced arthritis; assay: Rat adjuvant-induced arthritis (AIA) model; format: in vivo; conditions: for Body weight change (%): day 24 relative to day 10
Experimental: The rats were then inoculated intradermally (at the base of tail) with 0.5 mg heat-killed M. butyricum (BD Diagnostic Systems) in 100 μl light mineral oil (Sigma-Aldrich, St Louis, MO, USA). […] For each study, two or three rats from the same colony were not induced for arthritis and were used as healthy controls.
Unless noted otherwise, all drug treatments started on day 10 after arthritis induction and lasted for two consecutive weeks with biweekly (BIW, Mondays and Thursdays) or once-weekly (QW, Mondays) dosing regimens.
EC0746 was given subcutaneously (s.c.) in a dosing range of 25 to 1,000 nmol/kg (QW or BIW); MTX was given s.c. or orally at 250 nmol/kg (BIW) or 1,650 nmol/kg (QW); and etanercept (10 mg/kg) was given s.c. once every 3 days for a 12-day span. The QW MTX dosing regimen was to mimic MTX administration in humans, and this particular dose of 1,650 nmol/kg per week (that is, 0.75 mg/kg per week) was reportedly active as an intraperitoneal agent in the AIA model. To distinguish the anti-inflammatory mechanisms of EC0746 and MTX in vivo, a therapeutically irrelevant folate-containing competitor (EC0923, molecular weight 672) was used in 500-fold molar excess to block the activities of EC0746 and MTX at 250 nmol/kg (BIW).
Formalin-fixed hind paws were examined by a board-certified veterinary radiologist who had no knowledge of the study groups. Specific criteria were used to establish a numerical grade of severity for each radiographic change: increased soft tissue volume (0 to 4), narrowing or widening of joint spaces (0 to 5), subchondral erosion (0 to 3), periosteal reaction (0 to 4), osteolysis (0 to 4), subluxation (0 to 3), and degenerative joint changes (0 to 3). Scores are limited to the tarsus, and the maximum possible score per foot was 26 [39]. The histopathological analysis was also performed in a blind fashion by an independent contract laboratory (Bolder BioPATH Inc., Boulder, CO, USA). The arthritic ankles were scored on a scale of 0 to 5 for inflammation, bone resorption, pannus formation, and cartilage damage, with a maximal histology score of 20 per foot.

[11] = tested on: rat TG-macs; assay: Viability of thioglycollate-elicited peritoneal macrophages; format: cell-based; conditions: 72-hour incubation; no effect at concentrations as high as stated
Experimental: Female Lewis rats (175 to 200 g) were purchased from Harlan Sprague Dawley (Indianapolis, IN, USA) and were allowed to acclimate for 1 week. To obtain peritoneal macrophages, rats were dosed intraperitoneally with an aged thioglycollate (TG) medium (20 ml/kg) and euthanized 3 days later. The peritoneal cavity of the animals was lavaged with 60 ml ice-cold phosphate-buffered saline to collect peritoneal exudate. The TG-elicited macrophages in the peritoneal fluids were obtained after a red cell lysing step and a 2-hour adherence in folate-free RPMI 1640 medium (Mediatech, Manassas, VA, USA) containing 1% heat-activated fetal calf serum and antibiotics. The purity of the resulting macrophage population (herein referred to as rat TG-macs) was determined to be ~90% pure based on CD11b/c expression (data not shown). […] Unless otherwise specified, all cells were maintained in the folate-free RPMI 1640 medium containing 10% heat-activated fetal calf serum and antibiotics (FFRPMI) under a 5% CO2 atmosphere.
Unlike RAW264.7 cells, rat TG-macs display little proliferative activity ex vivo and therefore were used in our studies to represent inflammatory macrophages in a low proliferative state. […] LPS (5 μg/ml) and IFNγ (100 ng/ml) were then added to the treated cells 24 hours prior to the end of incubation to stimulate the release of cytokines/chemokines, which were then detected with a rat cytokine antibody array.

[12] = target: T3, dihydrofolate reductase (DHFR) (Mus musculus, UniProt P00375); assay: Dihydrofolate reductase inhibition assay in RAW264.7 whole cell lysates; format: cell-based, murine; conditions: FA alone 10 μM, 2-hour pulse, 22-hour chase
T3 construct: endogenous in cells; host or cells: RAW264.7 cells (FR-positive subclone of ATCC TIB71)
T3 sequence (P00375 1-187): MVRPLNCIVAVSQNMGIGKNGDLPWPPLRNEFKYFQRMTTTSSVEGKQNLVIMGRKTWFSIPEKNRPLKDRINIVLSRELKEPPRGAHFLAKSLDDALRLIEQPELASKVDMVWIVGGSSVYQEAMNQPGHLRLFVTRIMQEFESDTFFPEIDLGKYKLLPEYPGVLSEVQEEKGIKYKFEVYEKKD
Experimental: RAW264.7 cells growing in FFRPMI medium in 10 cm cell culture dishes (BD Falcon, Lincoln Park, NJ, USA) were treated with EC0746 (100 nM), EC0746 (100 nM) plus 100-fold molar excess of FA (10 μM), or FA alone (10 μM). After a 2-hour exposure, the drug-containing media were replaced and the cells were allowed to incubate further for 22 hours in fresh FFRPMI medium (referred in the text as a 22-hour chase). Meanwhile, AMT and MTX were kept at 100 nM for the entire 24-hour incubation period. All cells were subsequently lysed in the radioimmunoprecipitation assay lysis buffer, and DHFR activities in the whole cell lysates were determined using a commercial DHFR assay kit (Sigma-Aldrich). This spectrophotometric assay monitors the enzymatic conversion of dihydrofolic acid to tetrahydrofolic acid by DHFR and the disappearance of the co-factor nicotinamide adenine dinucleotide phosphate at 340 nm. The results were normalized to the values of the untreated control cells.

[13] = parameters: method as in PMID 10726889; conditions: rats, 0.1 mg/kg; cited from earlier work
[14] = s.c., 125 μmol/kg biweekly, alone
[15] = s.c., 1,650 nmol/kg once weekly
[16] = s.c., 10 mg/kg on days 10, 13, 16, 19, 22

Compound: Nc1nc(N)c2nc(CNc3ccc(C(=O)N[C@@H](CCC(=O)O)C(=O)O)cc3)cnc2n1 [AMT, aminopterin]
- Relative affinity value (FA = 1) [1]: 0.004
- Relative affinity value (FA = 1) [2]: 0.004
- Acute 50% lethal dose [3]: 3 mg/kg
- Potency relative to MTX [4]: ~ 20 fold
- Tmax ([5]; 500 nmol/kg, read-out: Time to maximum concentration (converted)): ~0.5 h
- AUC ([5]; read-out: Area under the curve (converted)): 1.02 µM·h
- half-life ([5]; read-out: Elimination half-life): ~2.33 h
- Cmax ([5]; read-out: Maximum concentration in plasma): 601 nM
- MTD at 2 weeks [6]: 0.05 µmol/kg
- Potency relative to MTX [7]: ~ 40 fold
- Potency in inhibition of LPS-stimulated TNFα production, AMT versus AMT hydrazide [8]: equally potent
- Potency in inhibition of cell proliferation, AMT versus AMT hydrazide [9]: equally potent
- Tolerability in AIA rats ([10]; unmodified AMT mixed with FA (1:1), 500 nmol/kg s.c. biweekly, after one or two doses, severe anemia and gastrointestinal distress): all animals treated with the simple mixture had to be euthanized
- Concentration affecting TG-macs viability [11]: > 10 µM

Compound: Nc1nc2ncc(CNc3ccc(C(=O)N[C@@H](CCC(=O)N[C@H](CC(=O)O)C(=O)N[C@H](CC(=O)O)C(=O)O)C(=O)O)cc3)nc2c(=O)[nH]1 [EC0923, pteroyl-γGlu-d-Asp-d-Asp, reference compound]
- Impact on development or severity of arthritis [10, 14]: did not have any impact
- Radiographic analysis of arthritic paws [10, 14]: significant joint erosions

Compound: Nc1nc(=O)c2nc(CNc3ccc(C(=O)N[C@@H](CCC(=O)O)C(=O)O)cc3)cnc2[nH]1 [FA, folic acid]
- Effect on DHFR activity of cells [12]: benign

Compound: CN(Cc1cnc2nc(N)nc(N)c2n1)c1ccc(C(=O)N[C@@H](CCC(=O)O)C(=O)O)cc1 [MTX, methotrexate, reference compound]
- Relative affinity value (FA = 1) [1]: 0.005
- Relative affinity value (FA = 1) [2]: 0.018
- Oral bioavailability [13]: 21%
- Acute 50% lethal dose [3]: 89 mg/kg
- Decrease in summed histology score ([10]; oral, 250 nmol/kg biweekly): 73%
- Reduction in dorsal to ventral paw thickness ([10]; oral, 250 nmol/kg biweekly): 63%
- Weight loss due to disease progression ([10]; oral, 1,650 nmol/kg (0.75 mg/kg) once weekly): ~ 10%
- Splenomegaly (percentage increase in spleen weight relative to healthy rats) ([10]; p.o., 250 nmol/kg biweekly from day 10): 42 ± 17%
- Inhibition in paw edema (%) ([10]; p.o., 250 nmol/kg biweekly from day 10, paw weight day 24): 70 ± 5%
- Body weight change (%) ([10]; p.o., 250 nmol/kg biweekly): -14 ± 2%
- Inhibition in paw edema (%) ([10]; p.o., 1,650 nmol/kg once weekly, calculated based on arthritis scores on day 24): 47 ± 10^f %
- Body weight change (%) ([10]; p.o., 1,650 nmol/kg once weekly): -10 ± 2%
- Splenomegaly (percentage increase in spleen weight relative to healthy rats) ([10]; s.c., 250 nmol/kg biweekly from day 10): 24 ± 3%
- Inhibition in paw edema (%) ([10]; s.c., 250 nmol/kg biweekly from day 10, paw weight day 24): 78 ± 10%
- Anti-arthritic activity in presence of EC0923 competitor ([10]; s.c., 250 nmol/kg biweekly plus EC0923 125 μmol/kg, P > 0.05): not significantly blocked
- Body weight change (%) ([10]; s.c., 250 nmol/kg biweekly): -2 ± 4%
- Weight loss [10, 15]: ~ 7%
- Inhibition in paw edema (%) ([10]; s.c., 1,650 nmol/kg once weekly, calculated based on arthritis scores on day 24): 63 ± 13^f %
- Body weight change (%) [10, 15]: -7 ± 8%
- Concentration affecting TG-macs viability [11]: > 10 µM

Compound: Etanercept
- Splenomegaly (percentage increase in spleen weight relative to healthy rats) ([10]; s.c., 10 mg/kg every 3 days): 42 ± 7%
- Inhibition in paw edema (%) ([10]; s.c., 10 mg/kg every 3 days, calculated based on arthritis scores on day 24): 46 ± 9^f %
- Body weight change (%) ([10]; s.c., 10 mg/kg every 3 days): -15 ± 2%
- Decrease in summed histology score [10, 16]: 43%
- Reduction in bone resorption (histology) [10, 16]: 55%
- Reduction in dorsal to ventral paw thickness [10, 16]: 40%
- Reduction in inflammation (histology) [10, 16]: 42%
